Assay results taken from ChEMBL document CHEMBL5465560, “Selectivity Literature for EUbOPEN Chemogenomic Library” (2024).

Columns and labels:
[1] = target: T1, Serine/threonine-protein kinase LATS1 (Homo sapiens) (UniProt O95835); assay: Selectivity interaction (KinomeScan (DiscoverX)) EUB0001079a LATS1; conditions: at 1 µM
T1 sequence (whole entry): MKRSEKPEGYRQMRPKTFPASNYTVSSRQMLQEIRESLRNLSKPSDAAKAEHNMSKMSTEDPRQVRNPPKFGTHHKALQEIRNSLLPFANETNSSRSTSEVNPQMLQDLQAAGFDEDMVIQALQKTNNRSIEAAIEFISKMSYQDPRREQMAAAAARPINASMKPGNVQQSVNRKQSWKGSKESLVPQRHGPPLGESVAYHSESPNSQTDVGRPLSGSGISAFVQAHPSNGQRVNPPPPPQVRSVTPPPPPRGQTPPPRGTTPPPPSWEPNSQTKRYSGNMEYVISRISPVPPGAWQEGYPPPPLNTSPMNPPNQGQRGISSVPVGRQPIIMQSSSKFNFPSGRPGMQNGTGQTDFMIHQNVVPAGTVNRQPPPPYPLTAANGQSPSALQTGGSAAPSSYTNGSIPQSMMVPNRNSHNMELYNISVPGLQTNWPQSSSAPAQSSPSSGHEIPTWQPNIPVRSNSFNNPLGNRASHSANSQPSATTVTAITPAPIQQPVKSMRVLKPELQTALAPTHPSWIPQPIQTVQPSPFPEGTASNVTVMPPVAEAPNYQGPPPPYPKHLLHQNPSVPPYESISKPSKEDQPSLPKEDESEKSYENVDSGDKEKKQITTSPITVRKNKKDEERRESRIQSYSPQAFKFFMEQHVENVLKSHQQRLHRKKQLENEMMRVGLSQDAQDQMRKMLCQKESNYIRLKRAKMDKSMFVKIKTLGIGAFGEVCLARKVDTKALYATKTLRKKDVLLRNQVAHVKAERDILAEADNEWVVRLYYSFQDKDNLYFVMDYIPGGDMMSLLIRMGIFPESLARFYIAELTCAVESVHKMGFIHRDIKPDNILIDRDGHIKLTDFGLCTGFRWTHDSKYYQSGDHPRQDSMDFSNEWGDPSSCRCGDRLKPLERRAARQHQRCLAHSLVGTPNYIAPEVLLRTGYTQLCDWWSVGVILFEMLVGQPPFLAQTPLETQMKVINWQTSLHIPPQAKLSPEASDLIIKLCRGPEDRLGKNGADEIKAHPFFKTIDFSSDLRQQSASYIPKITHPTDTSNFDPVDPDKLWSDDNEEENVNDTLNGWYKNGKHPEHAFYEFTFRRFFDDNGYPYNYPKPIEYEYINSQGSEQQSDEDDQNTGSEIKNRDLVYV

[2] = target: Serine/threonine-protein kinase MARK2 (Homo sapiens) (UniProt Q7KZI7); assay: Selectivity interaction (ActivX KiNativ screen (ex vivo kinase selectivity in human PBMCs)) EUB0001619a MARK2; assay type: cell-based; conditions: PBMC, at 1 µM
Serine/threonine-protein kinase MARK2 (Homo sapiens), sequence (Q7KZI7 whole entry): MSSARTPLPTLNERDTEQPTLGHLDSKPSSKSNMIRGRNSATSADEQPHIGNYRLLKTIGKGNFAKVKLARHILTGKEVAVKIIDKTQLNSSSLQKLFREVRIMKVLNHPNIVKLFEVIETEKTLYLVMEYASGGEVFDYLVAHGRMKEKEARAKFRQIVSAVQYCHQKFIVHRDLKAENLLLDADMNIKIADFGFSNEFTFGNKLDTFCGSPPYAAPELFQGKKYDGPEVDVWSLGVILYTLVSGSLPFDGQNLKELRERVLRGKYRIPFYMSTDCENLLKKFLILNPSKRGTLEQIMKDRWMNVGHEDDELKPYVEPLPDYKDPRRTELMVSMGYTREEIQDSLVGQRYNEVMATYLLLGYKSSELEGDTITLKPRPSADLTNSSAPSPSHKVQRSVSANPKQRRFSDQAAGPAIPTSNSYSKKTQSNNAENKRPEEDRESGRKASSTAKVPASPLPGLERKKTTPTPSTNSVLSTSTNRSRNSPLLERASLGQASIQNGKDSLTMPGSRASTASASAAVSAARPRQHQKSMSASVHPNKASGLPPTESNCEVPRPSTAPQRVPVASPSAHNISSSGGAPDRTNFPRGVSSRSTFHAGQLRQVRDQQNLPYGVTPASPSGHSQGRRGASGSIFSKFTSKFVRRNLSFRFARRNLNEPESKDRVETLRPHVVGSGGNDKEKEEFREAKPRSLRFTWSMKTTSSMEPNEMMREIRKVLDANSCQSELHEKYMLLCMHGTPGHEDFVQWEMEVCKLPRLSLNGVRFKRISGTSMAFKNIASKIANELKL

[3] = target: T2, Dual specificity mitogen-activated protein kinase kinase 4 (Homo sapiens) (UniProt P45985); assay: Selectivity interaction (ActivX KiNativ screen (kinase selectivity in THP-1 cell lysates)) EUB0000639a MAP2K4; assay type: subcellular; conditions: lysate
T2 sequence (whole entry): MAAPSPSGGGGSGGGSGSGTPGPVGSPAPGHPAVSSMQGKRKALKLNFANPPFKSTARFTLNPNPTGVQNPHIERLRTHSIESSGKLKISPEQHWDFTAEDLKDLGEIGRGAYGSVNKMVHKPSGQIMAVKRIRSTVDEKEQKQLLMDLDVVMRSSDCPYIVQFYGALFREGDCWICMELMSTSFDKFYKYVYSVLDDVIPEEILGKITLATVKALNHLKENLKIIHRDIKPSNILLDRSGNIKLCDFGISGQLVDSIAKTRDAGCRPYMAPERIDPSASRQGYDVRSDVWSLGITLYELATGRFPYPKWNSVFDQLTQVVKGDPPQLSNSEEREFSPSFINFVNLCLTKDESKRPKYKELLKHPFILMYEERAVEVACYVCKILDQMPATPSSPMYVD

[4] = target: T3, Tyrosine-protein kinase TXK (Homo sapiens) (UniProt P42681); assay: Selectivity interaction (KinomeScan (DiscoverX)) EUB0001049a TXK; conditions: at 1 µM
T3 sequence (whole entry): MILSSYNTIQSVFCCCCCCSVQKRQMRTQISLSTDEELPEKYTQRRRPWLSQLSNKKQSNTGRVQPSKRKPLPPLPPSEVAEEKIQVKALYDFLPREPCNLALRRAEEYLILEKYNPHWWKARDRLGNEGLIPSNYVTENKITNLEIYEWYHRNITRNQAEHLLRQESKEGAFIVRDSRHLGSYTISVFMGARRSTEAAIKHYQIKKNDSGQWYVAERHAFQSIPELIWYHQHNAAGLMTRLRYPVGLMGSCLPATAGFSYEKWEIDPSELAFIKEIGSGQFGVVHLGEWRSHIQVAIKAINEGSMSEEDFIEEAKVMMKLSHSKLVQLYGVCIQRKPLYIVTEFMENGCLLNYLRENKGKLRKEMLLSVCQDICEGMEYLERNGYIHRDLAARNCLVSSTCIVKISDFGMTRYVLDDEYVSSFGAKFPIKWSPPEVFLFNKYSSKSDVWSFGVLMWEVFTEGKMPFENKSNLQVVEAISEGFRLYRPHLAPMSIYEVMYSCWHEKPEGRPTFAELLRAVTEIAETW

[5] = target: T4, Myosin light chain kinase family member 4 (Homo sapiens) (UniProt Q86YV6); assay: Selectivity interaction (KinomeScan (DiscoverX)) EUB0001550a MYLK4; conditions: at 1 µM
T4 sequence (whole entry): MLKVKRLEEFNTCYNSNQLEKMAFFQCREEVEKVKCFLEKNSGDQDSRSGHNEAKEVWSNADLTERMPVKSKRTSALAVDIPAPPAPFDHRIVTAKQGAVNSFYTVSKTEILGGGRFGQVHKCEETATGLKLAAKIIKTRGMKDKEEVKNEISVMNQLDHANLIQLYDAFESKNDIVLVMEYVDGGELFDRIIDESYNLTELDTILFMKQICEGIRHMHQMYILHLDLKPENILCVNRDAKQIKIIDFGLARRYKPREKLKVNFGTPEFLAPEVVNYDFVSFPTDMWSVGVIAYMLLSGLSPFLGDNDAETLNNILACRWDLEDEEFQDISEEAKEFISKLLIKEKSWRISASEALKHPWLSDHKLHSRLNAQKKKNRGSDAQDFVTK

[6] = target: Serine/threonine-protein kinase MARK1 (Homo sapiens) (UniProt Q9P0L2); assay: Selectivity interaction (Kinase screening (Nanosyn)) EUB0000604a MARK1
Serine/threonine-protein kinase MARK1 (Homo sapiens), sequence (Q9P0L2 whole entry, looked up): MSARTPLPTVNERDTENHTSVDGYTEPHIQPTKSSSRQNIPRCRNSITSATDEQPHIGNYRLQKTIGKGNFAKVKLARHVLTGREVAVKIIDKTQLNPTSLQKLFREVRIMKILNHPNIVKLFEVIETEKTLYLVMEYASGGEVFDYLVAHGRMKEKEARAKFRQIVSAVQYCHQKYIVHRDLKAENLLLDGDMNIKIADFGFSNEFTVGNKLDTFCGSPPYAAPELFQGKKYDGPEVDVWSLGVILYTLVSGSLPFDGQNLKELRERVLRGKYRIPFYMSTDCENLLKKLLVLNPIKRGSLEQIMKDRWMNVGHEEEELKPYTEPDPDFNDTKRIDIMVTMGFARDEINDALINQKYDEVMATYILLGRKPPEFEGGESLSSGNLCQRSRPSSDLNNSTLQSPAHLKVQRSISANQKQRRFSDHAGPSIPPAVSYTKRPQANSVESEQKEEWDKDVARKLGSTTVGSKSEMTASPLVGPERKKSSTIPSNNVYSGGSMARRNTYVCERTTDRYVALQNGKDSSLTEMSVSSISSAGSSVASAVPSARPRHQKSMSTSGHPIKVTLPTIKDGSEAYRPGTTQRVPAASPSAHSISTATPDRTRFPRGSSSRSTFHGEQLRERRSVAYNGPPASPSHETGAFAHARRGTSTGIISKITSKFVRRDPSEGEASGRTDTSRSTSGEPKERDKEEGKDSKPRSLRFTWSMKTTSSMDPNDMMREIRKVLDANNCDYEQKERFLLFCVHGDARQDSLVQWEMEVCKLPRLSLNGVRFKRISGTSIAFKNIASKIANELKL

Nc1cnc(N2CCc3cc(S(=O)(=O)Nc4c(F)cc(Cl)cc4F)cc(N4CCCC4=O)c32)nc1 [TP-020n]
% of control [1]: 100%

N#Cc1cccc(-c2c[nH]c3ncnc(N4CCOCC4)c23)c1
% of inhibition [2]: 41%

CC[C@@H]1[C@H](F)C(=O)N[C@@H]1COc1nccc2cc(C(N)=O)c(OC)cc12 [ZIMLOVISERTIB]
% of inhibition ([3]; at 0.01 µM): -9.4% | % of inhibition ([3]; at 0.04 µM): -17.8% | % of inhibition ([3]; at 0.2 µM): 0.7% | % of inhibition ([3]; at 1 µM): 17.6% | % of inhibition ([3]; at 5 µM): 56.2%

COc1cc(Nc2nc(C)cc(-c3cnn4nc(OC)ccc34)n2)cc(C(F)(F)F)c1
% of control [4]: 91%

CN(C)CC#Cc1ccc2[nH]c3c(c2c1)-c1nc(N)ncc1CCC3
% of control [5]: 1.8%

Cc1cnc(Nc2ccc(F)cc2Cl)nc1-c1c[nH]c(C(=O)N[C@H](CO)c2cccc(Cl)c2)c1
% of inhibition [6]: 12%
